Assay results taken from the supplement of paper PMC8372320.

Experiment: photocatalytic hydrogen evolution rate (per 5 mg catalyst); higher = more photocatalytic H2 evolution; extreme values may be limits of the assay
Details: catalyst mass (mg): 5; Pt cocatalyst (wt%): 3; sacrificial medium: triethylamine/methanol/water 1:1:1
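Further: aromatic molecules in triethylamine/methanol/water with Pt photoreduced in situ, irradiated 3 h under a 1 sun AM 1.5G solar simulator (350–1000 nm), H2 quantified by headspace gas chromatography; listed molecule itself used as the photocatalyst at 5 mg per vial.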

SMILES | photocatalytic hydrogen evolution rate
O=C(O)c1ccc(-c2cc(-c3ccc(C(=O)O)cc3)c(-c3ccc(C(=O)O)cc3)cc2-c2ccc(C(=O)O)cc2)cc1 | 0.052 µmol/h
Ic1ccc(I)cc1 | 0 µmol/h
O=Cc1ccc(Br)nc1 | 0.297 µmol/h
Oc1ccc(I)cc1 | 0 µmol/h
Cc1cc(C=O)c(O)c(C=O)c1 | 7.62 µmol/h
O=C(O)c1ccc(-c2ccc(-c3ccc(C(=O)O)cc3)cc2)cc1 | 1.84 µmol/h
O=Cc1ccc(Br)cn1 | 0 µmol/h
c1ccc2cc3cc4ccccc4cc3cc2c1 | 0.162 µmol/h
O=Cc1cccc(C=O)c1 | 1.65 µmol/h
N#Cc1cc(N)ccn1 | 0 µmol/h
c1ccc2sccc2c1 | 0 µmol/h
Nc1ccncc1 | 0 µmol/h
NNC(=O)COc1ccc(Br)cc1Br | 0 µmol/h
O=Cc1ccc(F)c(O)c1 | 0.000356 µmol/h
c1ccc2cc3ccccc3cc2c1 | 0 µmol/h
Brc1ccc(Br)cc1 | 0 µmol/h
c1ccc(C(=C(c2ccccc2)c2ccccc2)c2ccccc2)cc1 | 0 µmol/h
N#Cc1cnc(Br)cn1 | 0.721 µmol/h
CC1(C)OB(c2cn[nH]c2)OC1(C)C | 0 µmol/h
Brc1ccc(Br)c2ccccc12 | 0 µmol/h
COc1cc(C=O)c(OC)cc1C=O | 1.37 µmol/h

SMILES | photocatalytic hydrogen evolution rate
O=Cc1ccc(O)c(O)c1 | 0 µmol/h
N#Cc1cnccc1Br | 0.0501 µmol/h
COC(=O)/C=C/c1ccccc1 | 0 µmol/h
N#Cc1cc2ccccc2cc1C#N | 0.401 µmol/h
C(=C\c1ccccc1)/c1ccccc1 | 0 µmol/h
O=Cc1cccc(C=O)n1 | 0 µmol/h
Oc1c(F)c(F)c(O)c(F)c1F | 0 µmol/h
O=C(O)c1c(C(=O)O)c(C(=O)O)c(C(=O)O)c(C(=O)O)c1C(=O)O | 0 µmol/h
OB(O)c1cc(F)c(B(O)O)cc1F | 0 µmol/h
O=C1OC(=O)c2ccc3c4ccc5c6c(ccc(c7ccc1c2c73)c64)C(=O)OC5=O | 0 µmol/h
O=Cc1cc(Br)cc(C=O)c1 | 0.831 µmol/h
COc1ccc(N2C(=O)c3ccc4c5ccc6c7c(ccc(c8ccc(c3c48)C2=O)c75)C(=O)N(c2ccc(OC)cc2)C6=O)cc1 | 0 µmol/h
Nc1ccc(-c2ccc(N)c(F)c2)cc1F | 0 µmol/h
c1ccc(Nc2ccccc2)cc1 | 0 µmol/h
Fc1c(F)c(Br)c2nsnc2c1Br | 2.63 µmol/h
O=Cc1ccc(O)c(O)c1O | 0 µmol/h
c1ccc(-c2c(-c3ccccc3)c(-c3ccccc3)c(-c3ccccc3)c(-c3ccccc3)c2-c2ccccc2)cc1 | 0 µmol/h
O=C(O)c1ccc(N=Nc2ccccc2)cc1 | 0 µmol/h
c1ccc2c(c1)c1ccccc1c1ccccc21 | 0.022 µmol/h
N[C@@H](Cc1ccccc1)C(=O)O | 0.0539 µmol/h
